Data as given in PMC4979471 (Cell Death Discovery, 2015).
Read-outs that look alike come from different tables or passages of the source.

Columns and labels:
Experiment in all cases: Kinase selectivity, P33-radiolabeled assay
Type in all cases: biochemical
Settings in all cases: 10 μM ATP
[1] = target: T1, MEK3 (Homo sapiens, UniProt P46734)
T1 construct: purchased Reaction Biology Corp
T1 sequence (P46734 1-347): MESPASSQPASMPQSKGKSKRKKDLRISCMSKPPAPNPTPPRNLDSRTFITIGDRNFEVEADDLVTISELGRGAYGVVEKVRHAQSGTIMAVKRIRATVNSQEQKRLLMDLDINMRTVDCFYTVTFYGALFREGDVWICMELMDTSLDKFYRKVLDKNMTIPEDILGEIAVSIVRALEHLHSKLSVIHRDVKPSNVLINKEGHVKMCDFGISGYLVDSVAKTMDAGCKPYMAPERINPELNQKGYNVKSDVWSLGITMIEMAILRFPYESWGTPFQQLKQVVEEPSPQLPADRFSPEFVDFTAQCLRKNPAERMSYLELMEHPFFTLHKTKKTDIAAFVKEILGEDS
Outline: (§1)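 Reactions contained 10 μM ATP and 10 μM test compound, each run in duplicate. Kinase activity is expressed as a percentage of DMSO-treated controls.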

[2] = target: T2, SRPK2 (Homo sapiens, UniProt P78362)
T2 construct: purchased Reaction Biology Corp
T2 sequence (P78362 whole entry): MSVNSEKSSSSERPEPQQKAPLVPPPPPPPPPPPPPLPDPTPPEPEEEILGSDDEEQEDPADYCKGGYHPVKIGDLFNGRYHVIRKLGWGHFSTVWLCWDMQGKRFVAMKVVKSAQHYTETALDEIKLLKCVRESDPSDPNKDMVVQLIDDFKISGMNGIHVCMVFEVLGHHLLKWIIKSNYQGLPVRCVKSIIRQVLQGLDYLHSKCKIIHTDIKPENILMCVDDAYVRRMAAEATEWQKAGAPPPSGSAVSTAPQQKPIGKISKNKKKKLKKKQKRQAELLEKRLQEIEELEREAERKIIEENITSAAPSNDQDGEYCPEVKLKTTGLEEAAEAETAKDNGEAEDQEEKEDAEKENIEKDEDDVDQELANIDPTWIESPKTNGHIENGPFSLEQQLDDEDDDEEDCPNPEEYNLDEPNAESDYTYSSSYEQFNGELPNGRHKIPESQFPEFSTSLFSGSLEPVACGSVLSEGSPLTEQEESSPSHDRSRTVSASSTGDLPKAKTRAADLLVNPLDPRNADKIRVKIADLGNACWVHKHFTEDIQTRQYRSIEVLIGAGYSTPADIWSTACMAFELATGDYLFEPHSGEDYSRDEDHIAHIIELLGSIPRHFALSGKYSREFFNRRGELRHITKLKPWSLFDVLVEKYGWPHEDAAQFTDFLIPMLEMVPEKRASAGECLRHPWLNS
Outline: as §1

[3] = target: T3, CDK6/cyclin D1 (Homo sapiens, UniProt Q00534)
T3 construct: purchased Reaction Biology Corp
T3 sequence (Q00534 whole entry): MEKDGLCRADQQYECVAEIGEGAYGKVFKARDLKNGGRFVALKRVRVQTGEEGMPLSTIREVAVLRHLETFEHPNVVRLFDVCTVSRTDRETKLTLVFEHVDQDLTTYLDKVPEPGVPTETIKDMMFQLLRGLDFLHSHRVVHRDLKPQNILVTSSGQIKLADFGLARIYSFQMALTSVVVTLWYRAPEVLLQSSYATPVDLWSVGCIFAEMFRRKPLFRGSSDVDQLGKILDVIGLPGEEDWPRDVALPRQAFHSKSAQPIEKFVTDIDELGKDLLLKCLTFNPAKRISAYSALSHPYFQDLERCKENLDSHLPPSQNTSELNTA
T3 sequence (P24385 whole entry partner): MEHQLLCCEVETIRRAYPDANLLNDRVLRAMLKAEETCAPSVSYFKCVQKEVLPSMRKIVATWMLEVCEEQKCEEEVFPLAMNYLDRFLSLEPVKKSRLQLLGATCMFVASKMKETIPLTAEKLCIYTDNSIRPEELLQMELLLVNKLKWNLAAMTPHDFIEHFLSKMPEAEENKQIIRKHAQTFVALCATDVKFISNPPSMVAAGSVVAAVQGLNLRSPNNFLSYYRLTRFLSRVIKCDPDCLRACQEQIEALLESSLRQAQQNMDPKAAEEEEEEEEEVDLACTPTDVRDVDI
Outline: as §1

[4] = target: T4, MST1/STK4 (Homo sapiens, UniProt Q13043)
T4 construct: purchased Reaction Biology Corp
T4 sequence (Q13043 1-487): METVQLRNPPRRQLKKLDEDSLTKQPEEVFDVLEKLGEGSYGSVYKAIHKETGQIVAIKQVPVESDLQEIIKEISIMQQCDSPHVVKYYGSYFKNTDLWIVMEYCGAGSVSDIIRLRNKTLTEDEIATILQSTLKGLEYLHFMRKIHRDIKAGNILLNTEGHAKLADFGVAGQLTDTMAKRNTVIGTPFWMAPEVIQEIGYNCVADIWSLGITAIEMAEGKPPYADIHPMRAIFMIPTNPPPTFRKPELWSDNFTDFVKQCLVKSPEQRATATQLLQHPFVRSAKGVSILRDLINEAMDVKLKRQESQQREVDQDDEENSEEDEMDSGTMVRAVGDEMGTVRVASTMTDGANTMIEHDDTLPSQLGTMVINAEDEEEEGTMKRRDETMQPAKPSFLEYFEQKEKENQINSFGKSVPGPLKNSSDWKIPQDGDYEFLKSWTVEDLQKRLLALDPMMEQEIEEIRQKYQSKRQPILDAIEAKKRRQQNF
Outline: as §1

[5] = target: T5, TAOK2/TAO1 (Homo sapiens, UniProt Q9UL54)
T5 construct: purchased Reaction Biology Corp
T5 sequence (Q9UL54 1-1235): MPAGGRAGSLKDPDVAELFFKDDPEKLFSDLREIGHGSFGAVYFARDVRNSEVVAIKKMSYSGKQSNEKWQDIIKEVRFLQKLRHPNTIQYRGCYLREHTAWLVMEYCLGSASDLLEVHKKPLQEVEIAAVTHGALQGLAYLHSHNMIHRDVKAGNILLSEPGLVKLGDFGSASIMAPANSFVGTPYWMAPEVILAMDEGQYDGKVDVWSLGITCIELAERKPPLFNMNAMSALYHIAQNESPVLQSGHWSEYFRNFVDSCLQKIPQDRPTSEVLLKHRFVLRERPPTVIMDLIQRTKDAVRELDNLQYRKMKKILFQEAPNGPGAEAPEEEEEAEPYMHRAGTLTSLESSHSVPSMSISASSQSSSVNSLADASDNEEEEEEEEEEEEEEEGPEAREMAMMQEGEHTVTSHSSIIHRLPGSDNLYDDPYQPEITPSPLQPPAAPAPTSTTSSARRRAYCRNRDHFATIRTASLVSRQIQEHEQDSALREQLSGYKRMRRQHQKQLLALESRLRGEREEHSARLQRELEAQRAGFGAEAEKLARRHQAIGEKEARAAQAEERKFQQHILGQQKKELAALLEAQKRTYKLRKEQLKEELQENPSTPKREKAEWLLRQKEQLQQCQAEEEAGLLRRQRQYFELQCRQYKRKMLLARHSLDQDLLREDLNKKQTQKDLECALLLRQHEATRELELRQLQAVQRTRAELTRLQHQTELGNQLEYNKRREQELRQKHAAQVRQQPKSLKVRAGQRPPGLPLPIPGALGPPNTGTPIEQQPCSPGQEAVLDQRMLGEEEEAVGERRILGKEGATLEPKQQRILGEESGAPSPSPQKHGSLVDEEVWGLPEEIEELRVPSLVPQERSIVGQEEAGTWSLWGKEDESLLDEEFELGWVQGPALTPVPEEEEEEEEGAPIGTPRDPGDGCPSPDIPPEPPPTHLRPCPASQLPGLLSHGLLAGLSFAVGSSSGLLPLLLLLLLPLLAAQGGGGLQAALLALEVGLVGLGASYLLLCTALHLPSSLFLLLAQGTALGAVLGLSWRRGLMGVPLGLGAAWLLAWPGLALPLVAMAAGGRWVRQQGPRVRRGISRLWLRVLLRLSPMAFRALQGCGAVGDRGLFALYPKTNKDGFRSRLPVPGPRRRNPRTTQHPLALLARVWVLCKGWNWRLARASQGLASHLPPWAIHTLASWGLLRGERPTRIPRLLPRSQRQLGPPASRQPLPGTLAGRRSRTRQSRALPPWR
Outline: as §1

[6] = target: T6, NEK2 (Homo sapiens, UniProt P51955)
T6 construct: purchased Reaction Biology Corp
T6 sequence (P51955 1-445): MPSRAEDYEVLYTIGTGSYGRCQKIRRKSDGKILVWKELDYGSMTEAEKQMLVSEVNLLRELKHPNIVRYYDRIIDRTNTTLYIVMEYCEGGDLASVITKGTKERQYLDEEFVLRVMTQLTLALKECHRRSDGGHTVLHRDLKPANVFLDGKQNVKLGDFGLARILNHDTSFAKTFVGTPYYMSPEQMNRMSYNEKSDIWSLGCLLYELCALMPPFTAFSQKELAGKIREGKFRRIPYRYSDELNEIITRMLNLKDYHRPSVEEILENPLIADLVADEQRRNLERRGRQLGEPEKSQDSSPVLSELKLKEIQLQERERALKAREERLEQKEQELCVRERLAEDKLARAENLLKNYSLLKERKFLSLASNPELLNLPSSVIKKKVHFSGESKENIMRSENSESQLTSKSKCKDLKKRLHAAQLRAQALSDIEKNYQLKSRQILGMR
Outline: as §1

[7] = read-out: % Enzyme Activity (relative to DMSO controls) AVG
[8] = read-out: % Enzyme Activity (relative to DMSO controls) Data 1
[9] = read-out: % Enzyme Activity (relative to DMSO controls) Data 2

`CC(C)(C)C(=O)N1N=CC[C@H]1c1ccccc1` [GSK′963] gave a remaining activity at 10 µM [1, 7] of 108%, a remaining activity at 10 µM [1, 8] of 103% and a remaining activity at 10 µM [1, 9] of 113%. It also gave a remaining activity at 10 µM [2, 7] of 102%, a remaining activity at 10 µM [2, 8] of 102% and a remaining activity at 10 µM [2, 9] of 102%. For the same compound, the remaining activity at 10 µM [3, 7] was 93.7%, the remaining activity at 10 µM [3, 8] was 94.2% and the remaining activity at 10 µM [3, 9] was 93.2%. The remaining activity at 10 µM [4, 7] was 100%, the remaining activity at 10 µM [4, 8] was 101% and the remaining activity at 10 µM [4, 9] was 100%. For the same compound, the remaining activity at 10 µM [5, 7] was 95.6%, the remaining activity at 10 µM [5, 8] was 97% and the remaining activity at 10 µM [5, 9] was 94.2%. The remaining activity at 10 µM [6, 7] was 107%, the remaining activity at 10 µM [6, 8] was 108% and the remaining activity at 10 µM [6, 9] was 106%.
